Laboratory results from patent publication US20110190307A1, “Assay” (priority 2008, published 2011).
Entries after “also recorded” stand apart in the source; their conditions may differ.

What was measured:
[1] = tested on: primary mammalian motor neurons; assay: neuroprotective effect on primary mammalian motor neurons in culture under stress; assay type: cell-based; conditions: 0.5 and 5 μM applied 1 hr before stressors (H2O2 and staurosporin), 24 hours, MAP-2 positive cells counted
Method: Neuroprotection is measured as a % of cells counted in each experimental condition to the number of control, untreated cells run at the same time on the same plate. NPA was applied 1 hr before stressors (H2O2 and staurosporin), at 2 concentrations: 0.5 and 5 μM. Stressors were applied for 24 hours, then plates were fixed and stained for MAP-2 and then positive cells counted.

[2] = tested on: HB9:GFP+ motor neurons in the lesioned adult spinal cord; assay: adult validation paradigm: motor neuron regeneration after spinal cord lesion; assay type: in vivo, zebrafish; conditions: 2 weeks post-lesion; for number of newly generated motor neurons in HB9:GFP transgenic animals: within 1.5 mm surrounding the lesion site
Method: As described previously (Becker et al., 1997), fish were anesthetized by immersion in 0.033% aminobenzoic acid ethylmethylester (MS222; Sigma, St. Louis, Mo.) in PBS for 5 min. A longitudinal incision was made at the side of the fish to expose the vertebral column. The spinal cord was completely transected under visual control 4 mm caudal to the brainstem-spinal cord junction.
Stereological counts were performed in confocal image stacks of three randomly selected vibratome sections from the region up to 750 μm rostral to the lesion site and three sections from the region up to 750 μm caudal to the lesion site. Cell numbers were then calculated for the entire 1.5 mm surrounding the lesion site.
Different small molecule libraries may be used for screening. It is possible to screen the Spectrum Collection of FDA approved drugs and natural products and other bioactive components (2000 compounds), the Diversity Set of the US National Cancer Institute (1990 compounds), the Tocriscreen library (1120 compounds) and the Prestwick Chemical Library (1120 compounds). Due to some overlap between libraries, we will test approximately 5600 individual compounds. All of these libraries are commercially available. Primary screen: Compounds are applied to HB9:GFP embryos in 24 well plates at a concentration of 10-25 μM in accordance with other studies (Zon and Peterson, 2005) at 6 hpf (mid-gastrula) and trajectories of motor axons analysed at 24 hpf. Analysing 2-3 embryos per compound is sufficient, because the pattern of motor axon outgrowth is highly stereotypic, making this a robust and quick screening tool. No anaesthesia or other manipulations are necessary to observe primary motor axons. Missing, stunted, excessively branched or supernumerary motor axons (FIG. 8), which are easily detectable in a fluorescence-equipped stereo-microscope, are classified as hits. Apparently toxic substances will be re-evaluated at lower concentrations. Specificity of the effect will be established in dose-response experiments for each hit. Secondary screen: To exclude non-specific effects on motor axons due to gross alterations of the embryos occurring during early drug application, and to more directly analyse incipient differentiation of motor neurons, we use the islet-1:GFP fish. Hit compounds from the primary screen are applied at 24 hpf, when early embryogenesis is complete, but before islet-1:GFP+ motor neurons have been born. The read-out of this screen is whether the rostro-caudal band of late born secondary motor neurons in the ventral spinal cord is complete. […] To do this, 20 embryos per treatment will be dechorionated, anesthetised (tricaine 1:10000) and analysed under a stereomicroscope. […]

[3] = tested on: islet-1:GFP+ motor neurons in the ventral spinal cord; assay: secondary screen paradigm: motor neuron differentiation in islet-1:GFP transgenic embryos; assay type: in vivo, zebrafish
Method: (§1) We use two transgenic lines, in which expression of green fluorescent protein (GFP) is controlled by the motor neuron specific promoters HB9 or islet-1 in the spinal cord. In the HB9:GFP line (Flanagan-Steet et al., 2005), primary motor neurons and their ventral axons are labelled at 24 hours post-fertilisation (hpf). Aberrations in the highly stereotypic pattern of primary motor axons are easily detectable in a stereo-microscope (FIG. 8). […] Thus, acceleration or delay of motor neuron differentiation can readily be assessed under a stereo-microscope.
(§2) Different small molecule libraries may be used for screening. […] Primary screen: Compounds are applied to HB9:GFP embryos in 24 well plates at a concentration of 10-25 μM in accordance with other studies (Zon and Peterson, 2005) at 6 hpf (mid-gastrula) and trajectories of motor axons analysed at 24 hpf. […] Missing, stunted, excessively branched or supernumerary motor axons (FIG. 8), which are easily detectable in a fluorescence-equipped stereo-microscope, are classified as hits. Apparently toxic substances will be re-evaluated at lower concentrations. […] The read-out of this screen is whether the rostro-caudal band of late born secondary motor neurons in the ventral spinal cord is complete. […] To do this, 20 embryos per treatment will be dechorionated, anesthetised (tricaine 1:10000) and analysed under a stereomicroscope. […]

[4] = tested on: motor axons in HB9:GFP embryos; assay: primary screen paradigm: motor axons in HB9:GFP transgenic embryos; assay type: in vivo, zebrafish; conditions: 24 hpf HB9:GFP embryos, compound applied at 6 hpf
Method: as §1, §2

SMILES | neuroprotection: number of neurons surviving stress conditions (% of untreated control cells) [1] | reduction in the number of newly generated motor neurons ([2]; compared to tomatidine-injected animals) | number of newly generated motor neurons in HB9:GFP transgenic animals ([2]; intraperitoneal injection) | embryos with a complete band of differentiated motor neurons ([3]; 72 hpf, controls 82%, p<0.00001) | effect on motor neuron differentiation (in words) ([3]; islet-1:GFP embryos, compound applied at 24 hpf, read at 48 hpf and 72 hpf) | absence of motor axons [4] | number of large motor neurons ([2]; intraperitoneal injection, p=0.0008)
CCCN1CCc2cccc3c2[C@H]1Cc1ccc(O)c(O)c1-3.Cl [NPA, R(−)-Propylnorapomorphine] | significantly increases the number of mammalian neurons surviving stress conditions | – | – | – | – | – | –
CC1=C2C[C@H]3[C@@H](CC=C4C[C@@H](O)CC[C@@]43C)[C@@H]2CC[C@]12O[C@@H]1C[C@H](C)CN[C@H]1[C@H]2C [cyclopamine] | – | 50% | 377±45.7 cells | 11% | blocks their differentiation; also recorded: retarded motor neuron differentiation | complete | –
C[C@H]1CC[C@]2(NC1)O[C@H]1C[C@H]3[C@@H]4CC[C@H]5C[C@@H](O)CC[C@]5(C)[C@H]4CC[C@]3(C)[C@H]1[C@@H]2C [tomatidine] | – | – | 747±42.2 cells | – | – | – | 20±4.2
